# Test system: Staphylococcus aureus strains including MSSA and MRSA strains
# Assay: Vancomycin in modified BMD method versus standard unsupplemented CA-MHB (FIG. 10)
# Assay type: cell-based
# Details: comparison of the two media
# Procedure: FIG. 10 depicts vancomycin activity assessed using the modified BMD method in comparison to method with standard CAMHB broth unsupplemented. Various Staphylococcus aureus strains including MSSA and MRSA strains were evaluated.
# Standard antibiotic vancomycin was evaluated in the modified BMD method. The MIC50, MIC90 and range were equivalent using standard CA-MHB versus CA-MHB supplemented with horse serum and DTT (FIG. 10).
structure (smiles),measurement,value
CN[C@H](CC(C)C)C(=O)N[C@H]1C(=O)N[C@@H](CC(N)=O)C(=O)N[C@H]2C(=O)N[C@H]3C(=O)N[C@H](C(=O)N[C@H](C(=O)O)c4cc(O)cc(O)c4-c4cc3ccc4O)[C@H](O)c3ccc(c(Cl)c3)Oc3cc2cc(c3O[C@@H]2O[C@H](CO)[C@@H](O)[C@H](O)[C@H]2O[C@H]2C[C@](C)(N)[C@H](O)[C@H](C)O2)Oc2ccc(cc2Cl)[C@H]1O [vancomycin],"MIC50, MIC90 and range, standard CA-MHB versus CA-MHB supplemented with horse serum and DTT",equivalent

# Reference: patent US10851401B2, “Broth microdilution method for evaluating and determining minimal inhibitory concentration of antibacterial polypeptides” (priority 2016, dated 2020)
